Test results from patent publication US7772425B2, “Vitamin D receptor modulators” (Eli Lilly and Company, priority 2002, dated 2010).
Values joined by “and” are separate entries in the source; they are usually repeats but may differ in a detail not shown here. Equal entries are not always repeated. Where two headings read alike, the source gives them in different places.

Experiments:
[1] = test system: KERtr cells (Human skin keratinocyte); assay: Keratinocyte proliferation assay; type: cell-based; settings: BrdU incorporation, read-out: Kera. Prolif. IC50
Protocol: 5. The Keratinocyte Proliferation Assay
This Assay is indicative for the treatment of psoriasis.
(5) The Keratinocyte Proliferation Assay:
KERtr cells (Human skin keratinocyte transformed with a retrovirus vector, obtained from ATCC) were plated in 96-well flat-bottomed plates (3000 cells/well) in 100 μl keratinocyte serum free medium supplemented with bovine pituitary extract in the absence of EGF (Life Technologies, Rockville, Md.) and incubated at 37° C. for two days. The cells were treated with various concentrations of VDR ligands (ten-fold serial dilution from 10,000 nM to 0.1 nM in triplicate), dissolved in 100 μl keratinocyte serum free medium supplemented with bovine pituitary extract in the absence of EGF and incubated at 37° C. for 72 hr. BrdU (5-bromo-2′-deoxyuridine) incorporation was analyzed as a measure of DNA replication (Cell proliferation ELISA kit, Roche Diagnostics, Indianapolis, Ind.) and absorbance was measured at 405 nm. Potency values (IC50) values were determined as the concentration (nM) of compound that elicited a half-maximal response.

rat osteocalcin promoter = assay: OCN (osteocalcin) promoter assay in RG-15 (ROS 17/2.8) cells; type: cell-based; settings: 48 hr treatment, luciferase
Protocol: 3. The OCN (Osteocalcin) Promoter Assay
The OCN Promoter Assay is an indicator and marker for osteoporosis. […] Preferred assay results are less than 50 nM.
(3) Materials and Method for The OCN Promoter Assay:
The activation of osteocalcin by VDR ligands was evaluated in a rat osteoblast-like cell line RG-15 (ROS 17/2.8) stably expressing rat osteocalcin promoter fused with luciferase reporter gene. […] Confluent RG-15 cells maintained in DMEM/F-12 medium (3:1) containing 5% FBS, 300 μg/ml G418 and at 37° C. under 5% CO2/95% air atmosphere were trypsinized (0.25% trypsin) and plated into white opaque 96-well cell culture plates (25000 cells/well). After 24 hr, cells (in DMEM/F-12 medium+2% FBS) were treated with various concentrations of compounds, dissolved in DMSO. The final DMSO concentration remained at 0.01% (v/v). After 48 hr treatment, the medium was removed, cells were lysed with 50 μl of lysis buffer (From Luciferase reporter assay system, Roche Diagnostics, Indianapolis, Ind.) and assayed for luciferase activity using the Luciferase Reporter Gene Assay kit from Boehringer Mannheim as per manufacturer's specifications.

female DBF mice = assay: Mouse hypercalcemia assay; type: in vivo; settings: orally via gavage for 6 days; serum ionized calcium 6 hours after last dosing
Source text: 4. The Mouse Hypercalcemia Assay
(4) Materials and Method for The Mouse Hypercalcemia Assay: […]

IL-10 = assay: human IL-10 induction assay in PBMCs; type: cell-based; settings: TPA/PHA treated human PBMCs, IL-10 immunoassay of supernatant
Source text: The evaluation of the novel compounds of the invention for psoriasis is done using the Keratinocyte Proliferation Assay in combination with other assays that measure inhibition of IL-2 production and stimulation of IL-10 production in peripheral blood mononuclear cells (PBMCs).
6. The IL-10 Induction Assay
This is an in vitro efficacy assay for psoriasis, abscess and adhesion. Psoriasis involves both keratinocytes and immune cells. IL-10 is a unique cytokine because it is anti-inflammatory and immunosuppressive. This assay tells us whether a VDRM is able to function as an agonist in PBMCs (primary blood mononuclear cells) or not. A lower EC50 value is desirable in this assay since a compound with a lower EC50 value will be a better agonist in PBMCs.
(6) Materials and Method for human IL-10 Induction Assay:
Isolation of peripheral blood mononuclear cells (PBMCs):
• A. Collect 50 ml of human blood and dilute with media, RPMI-1640. • B. Prepare sterile tubes with ficol. • C. Add diluted blood to tubes. • D. Centrifuge. • E. Discard the top layer and collect the cells from middle layer. • F. Divide all cells into four tubes and add media. • G. Centrifuge. • H. Aspirate off media and resuspend. • I. Collect all cells • J. Centrifuge. at 1200 rpm for 10 minutes. • K. Resuspend in RPMI-1640 with 2% FBS and count cells Stimulation of PBMC: • L. Prepare TPA in DMSO. • M. Dissolve PHA in water. • N. Plate TPA/PHA treated PBMCs in well plates. • O. Incubate. Treatment: • P. Prepare all compound dilutions in plain RPMI-1640 media. • Q. Add diluted compound. • R. Incubate. Sample Collection and assay: • S. Remove all the cells by centrifugation and assay the supernatant for IL-10 by immunoassay. • 1) T. Perform IL-10 assay using anti-human IL-10 antibody coated beads, as described by the manufacturer (Linco Research Inc., St. Charles, Mo.).

[2] = Homo sapiens, Keratinocyte, 72 h

| SMILES | IC50 ([1]; 72 hr) | EC50 (rat osteocalcin promoter) | IC50 [1, 2] | Mouse Hypercal (female DBF mice) | IC50 (IL-10) | IC50 (IL-10; Homo sapiens, PBMC) | EC50 (rat osteocalcin promoter; Rattus norvegicus, 48 h) |
| --- | --- | --- | --- | --- | --- | --- | --- |
| CCC(CC)(c1ccc(OC(C)C(O)C(C)(C)C)c(C)c1)c1ccc(C(=O)OC)c(C)c1 (single isomer, unassigned) [Ex. 10Db, 3′-[4-(2-hydroxy-1,3,3-trimethylbutoxy)-3-methylphenyl]-3′-[4-methoxycarbonyl-3-methylphenyl]pentane] | 1000 nM | 15 nM |  |  |  |  |  |
| CCC(CC)(c1ccc(OCC(O)C(C)(C)C)c(C)c1)c1ccc(C(=O)NCCS(C)(=O)=O)c(C)c1 (single isomer, unassigned) [Ex. 15A, 4-{1-ethyl-1-[4-(2-hydroxy-3,3-dimethylbutoxy)-3-methylphenyl]propyl}-N-(2-methanesulfonylethyl)-2-methylbenzamide] |  | 35 nM and 43 nM | 117 nM | 1500 µg/kg/day |  |  |  |
| CCC(CC)(c1ccc(OCC(O)C(C)(C)C)c(C)c1)c1ccc(C(=O)N(C)CC(=O)O)c(C)c1 (single isomer, unassigned) [Ex. 18, [(4-{1-ethyl-1-[4-(2-hydroxy-3,3-dimethyl-butoxy)-3-methyl-phenyl]-propyl}-2-methyl-benzoyl)-methyl-amino]-acetic acid] | 1000 nM |  |  | 1000 µg/kg/day | 47 nM |  |  |
| CCC(CC)(c1ccc(OCC(O)C(C)(C)C)c(C)c1)c1ccc(C(=O)NC(C)(C)C(=O)O)c(C)c1 (single isomer, unassigned) [Ex. 20B, 2-(4-{1-Ethyl-1-[4-(2-hydroxy-3,3-dimethyl-butoxy)-3-methyl-phenyl]-propyl}-2-methyl-benzoylamino)-2-methyl-propionic acid] |  |  | 3 nM | 300 µg/kg/day |  | 4 nM |  |
| CCC(CC)(c1ccc(C(=O)O)cc1)c1ccc(OCC(O)C(C)(C)C)c(C)c1 (single isomer, unassigned) [Ex. 22, 4-{1-Ethyl-1-[4-(2-hydroxy-3,3-dimethylbutoxy)-3-methylphenyl]-propyl}benzoic acid] | 4 nM |  |  | 1000 µg/kg/day |  | 39 nM |  |
| CCC(CC)(c1ccc(C(=O)O)cc1)c1ccc(OCC(O)C(C)(C)C)c(C)c1 (single isomer, unassigned) [Ex. 23, 4-{1-Ethyl-1-[4-(2-hydroxy-3,3-dimethylbutoxy)-3-methylphenyl]-propyl}benzoic acid] | 40 nM |  |  | 3000 µg/kg/day | 27 nM |  |  |
| CCC(CC)(c1ccc(OC(C)C(O)C(C)(C)C)c(C)c1)c1ccc(C(=O)Nc2nnn[nH]2)c(C)c1 (single isomer, unassigned) [Ex. 29, 3′-[4-(2-hydroxy-1,3,3-trimethylbutoxy)-3-methylphenyl]-3′-[4-(tetrazol-5-ylaminocarbonyl)-3-methylphenyl]pentane] | 49 nM |  |  | 3000 µg/kg/day |  | 153 nM |  |
| CCC(CC)(c1ccc(OC(C)C(O)C(C)(C)C)c(C)c1)c1ccc(C(=O)Nc2nnn[nH]2)c(C)c1 (single isomer, unassigned) [Ex. 30, 3′-[4-(2-hydroxy-1,3,3-trimethylbutoxy)-3-methylphenyl]-3′-[4-(tetrazol-5-ylaminocarbonyl)-3-methylphenyl]pentane] | 20 nM |  |  | 1000 µg/kg/day | 123 nM |  |  |
| CCC(CC)(c1ccc(OC(C)C(O)C(C)(C)C)c(C)c1)c1ccc(C(=O)NCC(=O)O)c(C)c1 (single isomer, unassigned) [Ex. 32, 3′-[4-(2-hydroxy-1,3,3-trimethylbutoxy)-3-methylphenyl]-3′-[4-(carboxymethylaminocarbonyl)-3-methylphenyl]pentane] | 1000 nM |  |  | 1000 µg/kg/day | 106 nM |  |  |
| CCC(CC)(c1ccc(C(=O)O)cc1)c1ccc(OCC(O)C(C)(C)C)c(Cl)c1 (single isomer, unassigned) [Ex. 36, 3′-[3-chloro-4-(2-hydroxy-3,3-dimethylbutoxy)phenyl]-3′-[4-carboxyphenyl]pentane] | 139 nM |  |  | >300 µg/kg/day |  |  |  |
| CCC(CC)(c1ccc(OC(C)C(O)C(C)(C)C)c(C)c1)c1ccc(C(=O)N(C)CC(=O)O)c(C)c1 (single isomer, unassigned) [Ex. 53, [(4-{1-Ethyl-1-[4-(2-hydroxy-1,3,3-trimethyl-butoxy)-3-methyl-phenyl]-propyl}-2-methyl-benzoyl)-methyl-amino]-acetic acid] | 224 nM |  |  | >3000 µg/kg/day |  |  |  |
| CCC(CC)(c1ccc(OCC(=O)C(C)(C)C)c(C)c1)c1ccc(OCC(=O)C(C)(C)C)c(C)c1 [DD, reference compound] |  |  | 1060 nM | 1000 µg/kg/day |  |  | 31.1 nM |
| CCC(CC)(c1ccc(OCC(O)C(C)(C)C)c(C)c1)c1ccc(C(=O)NS(C)(=O)=O)c(C)c1 (stereo not shown) [Ex. 5] |  |  | 375 nM | 100 µg/kg/day |  |  | 42 nM |
| CCC(CC)(c1ccc(CCC(=O)N(C)C)c(C)c1)c1ccc(OCC(=O)C(C)(C)C)c(C)c1 [Ex. 7, 3′-[4-(2-oxo-3,3-dimethylbutoxy)-3-methylphenyl]-3′-[4-(2-dimethylcarbamoylethyl)-3-methylphenyl]pentane] |  |  | 18 nM |  |  |  | 4 nM |
| CCC(CC)(c1ccc(CCC(=O)N(C)C)c(C)c1)c1ccc(OCC(O)C(C)(C)C)c(C)c1 (stereo not shown) [Ex. 8, 3′-[4-(2-hydroxy-3,3-dimethylbutoxy)-3-methylphenyl]-3′-[4-(2-dimethylcarbamoylethyl)-3-methylphenyl]pentane] |  |  | 330 nM | 100 µg/kg/day |  |  |  |
| CCC(CC)(c1ccc(/C=C/C(=O)N(C)C)c(C)c1)c1ccc(OCC(O)C(C)(C)C)c(C)c1 (stereo not shown) [Ex. 9, 3′-[4-(2-hydroxy-3,3-dimethylbutoxy)-3-methylphenyl]-3′-[4-(2-dimethylcarbamoyl-t-ethylidene)-3-methylphenyl]pentane] |  | 6 nM | 985 nM |  |  |  | 7 nM |
| CCC(CC)(c1ccc(OCC(=O)C(C)(C)C)c(C)c1)c1ccc(C(=O)O)c(C)c1 [Ex. 17, 4-{1-[4-(3,3-dimethyl-2-oxobutoxy)-3-methylphenyl]-1-ethylpropyl}-2-methylbenzoic acid] |  |  | 1000 nM | >3000 µg/kg/day |  |  |  |
| CCC(CC)(c1ccc(OC(C)C(O)C(C)(C)C)c(C)c1)c1ccc(C(=O)N[C@@H](C)C(=O)O)c(C)c1 (stereo partly shown) [Ex. 47, (L)-2-(4-{1-Ethyl-1-[4-(2-hydroxy-1,3,3-trimethyl-butoxy)-3-methyl-phenyl]-propyl}-2-methyl-benzoylamino)-propionic acid] |  |  | 1000 nM | 3000 µg/kg/day |  |  |  |
| CCC(CC)(c1ccc(OC(C)C(O)C(C)(C)C)c(C)c1)c1ccc(C(=O)N[C@H](C)C(=O)O)c(C)c1 (stereo partly shown) [Ex. 48, (D)-2-(4-{1-ethyl-1-[4-(2-hydroxy-1,3,3-trimethyl-butoxy)-3-methyl-phenyl]-propyl}-2-methyl-benzoylamino)-propionic acid] | 1000 nM |  |  | <1000 µg/kg/day |  |  |  |
